Counter-ions that a name gives are not always drawn.
Tests used:
human MCH1R receptor [1] = target: T1, human MCH1R receptor (Homo sapiens, UniProt Q99705); experiment: MCH1R receptor binding by SPA ([125I]-MCH displacement, CHO-K1 hMCH1R membranes); conditions: 0.2 nM [125I]-MCH, membranes of CHO-K1 cells expressing hMCH1 receptor, room temperature; Ki calculated from IC50 (Cheng-Prusoff)
T1 construct: host or cells: CHO-K1
Method: The compounds according to the invention were evaluated for their binding to the human MCH1R receptor by the following method:
Compounds: MCH peptide was purchased from Phoenix pharmaceuticals. (Phe^13, [^125I]Tyr^19 Melanine-Concentrating Hormone (human, mouse, rat) ([^125I]-MCH) was obtained from NEN life Science Products. Inc. Boston, Mass. Wheat germ agglutinine SPA beads (RPNQ 0001) were obtained from Amersham-Pharmacia Biotech. All other reagents used are of highest purity from different resources available. Protein Kits, Micro BCA™ Protein Assay Reagent Kit (Cat No. 23235) were purchased from Piece, Rockford, Ill., USA.
CHO-K1 cells expressing hMCH1 receptor were purchased from Euroscreen. CHO-K1 hMCHRI (Euroscreen, Brussels, Belgium, # ES-370-C) were cultivated in Nutrient mixture Ham's F-12 with Glutamax I (Gibco-BRL #31765-027) supplemented with 10% heat-inactivated foetal calf serum (FCS, Gibco-BRL #10108-165) and 400 μg/ml geniticin (Gibco-BRL #1140-0359). The cells were sub-cultivated twice weekly with split ratio=1:20-1:30. For membrane preparation the cells were cultured in […] and the cells were harvested when 90% confluent.
When the cells reached more than 90% confluence, dishes (500 cm^2) were rinsed twice with 20 ml PBS (Ca^2+ and Mg^2+ free). Buffer A, which contains Tris.HCl (15), MgCl2.6H2O (2), EDTA (0.3), EGTA (1) in mM with pH 7.5, 25 ml was added and cells were suspended using a window scraper. The cells were collected in 50 ml Falcon tube pre-cooled on ice and then centrifuged for 3 minutes at 1500 g at 4° C. […]
The radio labeled [^125I]-MCH was diluted with cold MCH in ratio 1:3. […] The results were calculated using Excel program and the curves were drawn using a program GraphPad Prism.
For screening of the substances the amount of the beads used was 0.25 mg/well and the amount of the membrane protein was 4 μg/well 0.2 nM of labeled MCH was used. […] The samples were counted using Microbeta counter (Wallac Trilux 1450 Micro beta counter, Wallac, Finland) for 2 minutes and the results were calculated by using the computer program Activity Base. […]

human MCH1R receptor [2] = target: T1, human MCH1R receptor; conditions: from Hervieu et al., Eur J Neurosci 2000; read-out: Kd of MCH binding reported in literature; cited from earlier work

T1 sequence (Q99705 whole entry): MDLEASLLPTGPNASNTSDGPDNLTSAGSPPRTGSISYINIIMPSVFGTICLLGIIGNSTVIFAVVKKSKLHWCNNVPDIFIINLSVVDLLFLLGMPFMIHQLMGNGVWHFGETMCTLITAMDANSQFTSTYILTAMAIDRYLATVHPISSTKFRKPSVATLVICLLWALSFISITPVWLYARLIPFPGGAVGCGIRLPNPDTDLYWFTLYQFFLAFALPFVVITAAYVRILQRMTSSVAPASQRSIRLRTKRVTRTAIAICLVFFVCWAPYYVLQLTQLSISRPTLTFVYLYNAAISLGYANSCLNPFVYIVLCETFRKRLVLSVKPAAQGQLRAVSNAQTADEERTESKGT

Row | Compound | Ki (human MCH1R receptor [1]) [nM] | Kd (human MCH1R receptor [2]) [nM]
1 | COc1ccc([C@@]23CC[C@@H](NC(=S)NCc4ccccc4)C[C@@H]2N(CCCc2ccccc2)CC3)cc1OC (relative stereo) [Example 23, N-benzyl-N′-[(3aS*,6R*,7aS*)-3a-(3,4-dimethoxyphenyl)-1-(3-phenylpropyl)octahydro-1H-indol-6-yl]thiourea] | 43 | –
2 | C=CCNC(=O)N[C@@H]1CC[C@@]2(c3ccc(OC)c(OC)c3)CCN(C)[C@H]2C1 (relative stereo) [Example 58, N-allyl-N′-[(3aS*,6R*7aS*)-3a-(3,4-dimethoxyphenyl)-1-methyloctahydro-1H-indol-6-yl]urea trifluoroacetate] | 907 | –
3 | COc1ccc([C@@]23CC[C@@H](NC(=O)NCc4ccc(Br)cc4)C[C@@H]2N(C)CC3)cc1OC (relative stereo) [Example 69, N-(4-bromobenzyl)-N′-[(3aS*,6R*,7aS*)-3a-(3,4-dimethoxyphenyl)-1-methyloctahydro-1H-indol-6-yl]urea trifluoroacetate] | 227 | –
4 | [^125I]-MCH | – | 1.2

Reference: patent publication US20050192339A1, “Compounds” (priority 2003, published 2005)
